Laboratory results: US20070196514A1, “Prostate cancer treatment with glycogen synthase kinase-3beta inhibitors” (priority 2006, published 2007)

Experiments:
HEK293 cells = experiment: Affymetrix cDNA microarray for LiCl-induced changes; format: cell-based, human; details: LiCl treatment, data not shown
Procedure: Androgen-insensitive C4-2 cells and HEK293 cells were used for cDNA-based microarray analysis. After serum starvation for 24 hours, cells were left untreated or treated with LiCl (10 mM) in serum free media for 30 minutes whereas the control cells received PBS in the same media. Then 10% FBS was brought back to both control and LiCl pre-treated cells and incubated for another 6 hours. At the end of treatment, total cellular RNAs were extracted using Trizol-based protocol as described (Liao 2005).
Genechip® arrays (Affymetrix Inc, Santa Clara, Calif.) used herein contain almost 45,000 probe sets representing more than 39,000 transcripts derived from approximately 33,000 well substantial human genes. The in vitro-transcription labeling is conducted using the EnzoBio array high yield RNA transcript labeling kit (Affymetrix). Ten micrograms of total RNAs were used for the first strand cDNA synthesis using the SuperscriptChoice system (Invitrogen).
Genechips were hybridized for 16 hours at 45° C. and 60 rpm in Genechip hybridization oven Model 640. After washing the Genechip, the signal intensity was detected using the Agilent Gene Array scanner.
The most dramatic changes were down-regulation of cdc6, cdc25C, cyclins A and E, as well as up-regulation of CDK inhibitor p21^CIP1. […]

PC-3 xenografts = experiment: mouse xenograft model, protocol B (palpable tumors), with in vivo BrdU labeling and TUNEL; design: species or system nude mice
Procedure: All animal studies were conducted under an approved Institutional Animal Care and Use Committee protocol. Single cell suspensions (2×10^6 cells in 0.1 ml of RPMI1640 medium plus 10% FBS) were inoculated subcutaneously (s.c.) into the rear flanks (two sites/mouse) of 6 to 7 weeks old male nude mice (Charles River, Wilmington, Mass.). For protocol A, mice were randomly divided into two groups (5 animals each). On next day after inoculation, one group of animals received i.p. injection of LiCl at a daily dose of 2 mg/kg body weight. LiCl was dissolved in PBS. The control groups of animals received PBS alone in the same volume. Xenograft development and growth were monitored for 8 weeks. The tumor dimensions were measured twice a week. The tumor volume was calculated by the formula of L×W×H×0.5236 (Miyake 2001). At the end of treatment, xenograft tumors were extirpated, and the final tumor size and weight, as well as animal weight were measured. For protocol B, treatment began until tumor became palpable or 50 mm^3 in size, and LiCl or PBS was injected (5 animals each group) as above for a two-week course. Tumor size and weight were measured at the end of treatment. For BrdU in vivo labeling, the animals were injected i.p. with 0.5 ml of a 10-mM BrdU solution (Invitrogen) 2 hours before sacrifice. For experiments involving LNCaP-BclxL SB216763 subline cells (Liao 2005) were inoculated as above, and SB216763 treatment was started two weeks later when palpable xenografts were established. […] Tumor growth was monitored as discussed herein. […]
In protocol B, animals were treated with LiCl at 2 mg/kg for a two-week course when PC-3 xenografts were palpable or about […] in size. Tumor weight was measured at the endpoint of treatment and was compared between LiCl-treated and PBS control groups.
Next, the DNA synthesis associated with LiCl-induced tumor suppression in vivo was also investigated. DNA synthesis was measured by an in vivo BrdU incorporation assay. Meanwhile, apoptotic events, if any, were detected using TUNEL assay. […]

LNCaP cells [1] = experiment: cell cycle analysis by flow cytometry (PI); format: cell-based, human; details: serum-starved 24 hours then full media with LiCl up to 24 hours
Procedure: For cell cycle analysis, serum-starved cells were left untreated or treated with different inhibitors for various time periods as indicated in the figures. After trypsinization, the cells were fixed and stained with propidium iodide (“PI”). Cell cycle distribution of PI-labeled cells was analyzed on a fluorescence activated cell sorter (Model EPICS XL-MCL, Beckman-Coulter Co., Fullerton, Calif.) as described previously (Miyake 2001).
LNCaP cells were first serum-starved for 24 hours, and were then released by returning them to full culture media in the presence or absence of LiCl for up to 24 hours. Cell cycle distribution was analyzed by flow cytometry (“FCM”). […] When serum was added back in the culture (the control), cells re-entered into cell cycle.

C4-2 cells = experiment: MTT cell growth assay; format: cell-based, human; details: equimolecular concentrations of LiCl, NaCl, KCl, three days
Procedure: (§1) For MTT-based cell growth assays, cells seeded in 96-well plates were serum-starved for 48 hours, and were then treated with vehicle or different reagents for different time periods as indicated in the figures. MTT assay were carried out using a pre-assembled kit (Sigma) according to the manufacturer's manual.
(§2) To rule out the eventual intervention of the chloride anion and the osmotic disturbance, the effect of LiCl was compared with sodium chloride (“NaCl”) and potassium chloride (“KCl”) at equimolecular concentrations in both LNCaP and PC-3 cell lines. In addition, the androgen-insensitive C4-2 cell line was included. To easily handle the experiments while multiple comparisons were taken in place, a MTT assay was used to assess cell growth.

PC-3 cells = experiment: MTT cell growth assay; format: cell-based, human; details: equimolecular concentrations of LiCl, NaCl, KCl, three days
Procedure: as §1, §2

LNCaP cells [2] = experiment: MTT cell growth assay; format: cell-based, human; details: equimolecular concentrations of LiCl, NaCl, KCl, three days
Procedure: as §1, §2
Lastly, two GSK-3β-specific small chemical inhibitors, SB216763 and BIO, were used to verify that LiCl-induced suppression of cell growth is due to GSK-3β inhibition. LNCaP cells were seeded as above and then treated with increasing doses of the inhibitors in a full culture medium. Cell growth was assessed three days later by MTT assay.

[Cl-].[Li+] [LiCl, Lithium chloride]
alterations of cell cycle genes (microarray) (HEK293 cells): not observed
TUNEL staining (apoptotic events) in xenografts, LiCl vs PBS (PC-3 xenografts; LiCl 2 mg/kg): did not show any difference
BrdU labeling in xenografts vs PBS control (PC-3 xenografts; in vivo BrdU incorporation, BrdU injected two hours before sacrifice): significantly reduced
tumor weight vs PBS control (PC-3 xenografts; protocol B, LiCl 2 mg/kg, two-week course on palpable xenografts): significantly reduced
portion of S-phase cells (LNCaP cells [1]): dramatically increased
cell growth inhibition (MTT) (C4-2 cells): dramatic inhibition
cell growth inhibition (MTT) (PC-3 cells): dramatic inhibition
cell growth inhibition (MTT) (LNCaP cells [2]): dramatic inhibition
